The values below come from PubChem BioAssay (NCI).

Structures are written as SMILES.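 Cultured in 96-well plates, cells were exposed to test compound for 48 hours across five concentrations. GI50 is the concentration that inhibits growth by half. Definition used: TGI = concentration required for complete inhibition of growth.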

Among the test systems are A549 NSCLC; ACHN renal; HL-60(TB) leukemia; KM12 colon; NCI-H522 lung; RXF 393 renal; SF-295 CNS; SR leukemia.
Holding throughout (experiment): inhibition of tumour cell growth, NCI panel, 48 h

`COc1ccc(/C=C2\C(=O)Nc3ccccc32)cc1OC`: the TGI in the assay on A549 NSCLC, with ACHN renal, in the assay with HL-60(TB) leukemia, with KM12 colon, with NCI-H522 lung and in the assay on RXF 393 renal was greater than 100 µM throughout. In the assay with SF-295 CNS, the TGI was greater than 100 µM.

Regarding `CCCCN(CCCC)C(=O)C(=O)C(C(=O)C(=O)OC)c1nc2ccccc2o1` (configuration not stated), the TGI in the assay on A549 NSCLC is greater than 100 µM; in the assay on ACHN renal it was greater than 100 µM; in the assay on HL-60(TB) leukemia, greater than 100 µM; with KM12 colon it was greater than 100 µM; with NCI-H522 lung, greater than 100 µM; with RXF 393 renal it was 99 µM. Besides, the TGI in the assay with SF-295 CNS and with SR leukemia was greater than 100 µM each time.

Regarding `Cn1cnc([N+](=O)[O-])c1Sc1nccn1-c1ccccc1`, the TGI in the assay with A549 NSCLC is greater than 100 µM; in the assay on ACHN renal, greater than 100 µM; in the assay on KM12 colon, greater than 100 µM; in the assay on NCI-H522 lung, 24.5 µM; in the assay on SF-295 CNS, greater than 100 µM; in the assay on SR leukemia, 62.3 µM.

As for `OCC(O)COc1ccc(F)cc1` (configuration not stated), the TGI in the assay with A549 NSCLC, in the assay with ACHN renal, with HL-60(TB) leukemia, in the assay on KM12 colon, in the assay on NCI-H522 lung and in the assay on RXF 393 renal was greater than 100 µM in each case. Besides, the TGI with SF-295 CNS and in the assay with SR leukemia was greater than 100 µM each time.

As for `Cc1cc2c(=O)cc(-c3ccc(Cl)cc3Cl)oc2c(C(=O)O)c1C`, the TGI in the assay on A549 NSCLC, with ACHN renal, with KM12 colon, in the assay on NCI-H522 lung, with RXF 393 renal and in the assay on SF-295 CNS was greater than 100 µM throughout.

Consider `COC1OC(CO)C(O)C(NC(=O)N(C)N=O)C1O` (configuration not stated), for which the TGI in the assay with A549 NSCLC, in the assay on ACHN renal, in the assay with HL-60(TB) leukemia, in the assay on KM12 colon, in the assay with NCI-H522 lung and in the assay on RXF 393 renal was greater than 100 µM in each case. The TGI with SF-295 CNS and with SR leukemia was greater than 100 µM throughout.

`COc1cc(/C=C(\C)c2ccc3c(c2)OCO3)cc(OC)c1OC`: the TGI in the assay on A549 NSCLC was greater than 100 µM; with ACHN renal, 49.3 µM; in the assay on HL-60(TB) leukemia, greater than 100 µM; in the assay on KM12 colon, greater than 100 µM; in the assay with NCI-H522 lung, 69 µM; in the assay on RXF 393 renal it was 99.5 µM. In addition, the TGI in the assay on SF-295 CNS is greater than 100 µM; in the assay with SR leukemia, 59.7 µM.

For `NC(=S)N/N=C/c1cn(CCCl)c2ccccc12`, the TGI in the assay with A549 NSCLC was greater than 100 µM; in the assay with HL-60(TB) leukemia it was 53.8 µM; in the assay with KM12 colon it was greater than 100 µM; with NCI-H522 lung, greater than 100 µM; with RXF 393 renal, greater than 100 µM; in the assay with SF-295 CNS, greater than 100 µM. The TGI with SR leukemia is greater than 100 µM.

`CC(=O)OC1C(COC(N)=O)OC(n2c(-c3ccc(C)cc3)cc(-c3ccccc3)c(C#N)c2=O)C(OC(C)=O)C1OC(C)=O` (configuration not stated): the TGI in the assay with A549 NSCLC, in the assay on ACHN renal, with KM12 colon, with NCI-H522 lung, with RXF 393 renal and in the assay on SF-295 CNS was greater than 100 µM in each case. Besides, the TGI with SR leukemia is greater than 100 µM.

Consider `Cc1cc2c(=O)cc(-c3ccc(Cl)c(Cl)c3)oc2c(C(=O)O)c1C`, for which the TGI with A549 NSCLC, in the assay with ACHN renal, with KM12 colon, with NCI-H522 lung, in the assay with RXF 393 renal and in the assay with SF-295 CNS was greater than 100 µM throughout.

Take `COC(=O)C(=O)C(C(=O)C(=O)Nc1ccccc1C(N)=O)c1nc2ccc([N+](=O)[O-])cc2[nH]c1=O` (configuration not stated): the TGI in the assay on A549 NSCLC, in the assay on ACHN renal, with HL-60(TB) leukemia, in the assay with KM12 colon, with NCI-H522 lung and in the assay with RXF 393 renal was greater than 100 µM in each case. In addition, the TGI with SF-295 CNS and in the assay on SR leukemia was greater than 100 µM in each case.

For the compound `Cc1cc2c(=O)cc(-c3ccc(C(=O)O)cc3)oc2c(C(N)=O)c1C`, the TGI in the assay on A549 NSCLC, in the assay with ACHN renal, in the assay with KM12 colon, in the assay on NCI-H522 lung and in the assay on SF-295 CNS was greater than 100 µM in each case.

`CNC(=O)N(CCCC(NC(C)=O)C(=O)NCc1ccccc1)Cc1ccccc1` (configuration not stated): the TGI in the assay with A549 NSCLC, with ACHN renal, with KM12 colon, in the assay on NCI-H522 lung, in the assay on RXF 393 renal and in the assay on SF-295 CNS was greater than 100 µM in each case.

On to `C=CCC1=C2CCCCC2CCC1=O` (configuration not stated), for which the TGI in the assay on A549 NSCLC, in the assay on ACHN renal, in the assay on HL-60(TB) leukemia, with KM12 colon, in the assay on NCI-H522 lung and in the assay on RXF 393 renal was greater than 100 µM throughout. The same compound gave a TGI in the assay with SF-295 CNS greater than 100 µM.

In the case of `CCOc1ccc(N=C2NC(=O)C(CC(=O)Nc3ccc(Cl)cc3Cl)S2)cc1` (configuration not stated), the TGI in the assay on A549 NSCLC, in the assay on ACHN renal, with KM12 colon and in the assay on SF-295 CNS was greater than 100 µM each time.

On to `Cc1cc2c(=O)cc(-c3ccc(O)cc3)oc2c(C(=O)O)c1C`, for which the TGI in the assay on A549 NSCLC, in the assay with ACHN renal, in the assay on HL-60(TB) leukemia, in the assay on KM12 colon, with NCI-H522 lung and with SF-295 CNS was greater than 100 µM throughout. In the assay on SR leukemia, this compound yielded a TGI greater than 100 µM.

In the case of `Cc1ccc(S(=O)OC2c3ccccc3Cc3ccccc32)cc1` (configuration not stated), the TGI in the assay on A549 NSCLC came to 87.2 µM; in the assay on ACHN renal it was 49 µM; in the assay on HL-60(TB) leukemia it was 44 µM; in the assay with KM12 colon, 39.2 µM; in the assay with NCI-H522 lung, 27.1 µM; in the assay on RXF 393 renal, 26.8 µM. The TGI was 62.6 µM in the assay with SF-295 CNS and 70.8 µM with SR leukemia.

In the case of `S=C1NC(c2ccccc2)=NC(Cc2ccccc2)(c2ccccc2)N1c1ccccc1` (configuration not stated), the TGI in the assay with A549 NSCLC, in the assay with ACHN renal, with HL-60(TB) leukemia, with KM12 colon, in the assay with RXF 393 renal and in the assay with SF-295 CNS was greater than 100 µM each time. Further, the TGI with SR leukemia was greater than 100 µM.

For `CN(CC(=O)O)S(=O)(=O)c1ccc(Cl)cc1`, the TGI in the assay on A549 NSCLC, in the assay on ACHN renal, with HL-60(TB) leukemia, with KM12 colon, with NCI-H522 lung and in the assay with RXF 393 renal was greater than 100 µM throughout. In addition, the TGI in the assay with SF-295 CNS was greater than 100 µM.

As for `S=c1sc2sc(=S)sc2s1`, the TGI in the assay with A549 NSCLC was greater than 100 µM; in the assay on ACHN renal, greater than 100 µM; in the assay on HL-60(TB) leukemia, 23.3 µM; with KM12 colon, greater than 100 µM; in the assay with NCI-H522 lung, greater than 100 µM; in the assay on RXF 393 renal, greater than 100 µM. Moreover, the TGI in the assay with SF-295 CNS was 72 µM; in the assay on SR leukemia it was greater than 100 µM.

For `O=C([CH-]C(=O)c1ccccc1)c1ccccc1.O=C([CH-]C(=O)c1ccccc1)c1ccccc1.[CH2-]CCC.[CH2-]CCC.[Sn+4]`, the GI50 was 1.82 µM in the assay with A549 NSCLC; 0.457 µM in the assay on ACHN renal; 0.169 µM in the assay on HL-60(TB) leukemia; 0.728 µM in the assay with KM12 colon; 0.0293 µM with NCI-H522 lung; 0.128 µM in the assay with RXF 393 renal. For the same compound, the GI50 in the assay on SF-295 CNS was 1.12 µM. Also, the TGI worked out at 4.12 µM in the assay on A549 NSCLC; 1.6 µM with ACHN renal; 0.606 µM with HL-60(TB) leukemia; 2.28 µM in the assay with KM12 colon; 0.13 µM with NCI-H522 lung; 0.416 µM in the assay on RXF 393 renal. The compound further yielded a TGI in the assay with SF-295 CNS of 2.35 µM.

For the compound `CN1C[C@@H]2CC(=O)CC[C@@H]2C[C@H]1C#N`, the TGI in the assay with A549 NSCLC, in the assay with ACHN renal, in the assay on HL-60(TB) leukemia, with KM12 colon, in the assay with NCI-H522 lung and in the assay with SF-295 CNS was greater than 100 µM throughout.

Turning to `COC(=O)c1oc([N+](=O)[O-])c(-c2ccccc2)c1-c1ccccc1`, the TGI with A549 NSCLC, in the assay on ACHN renal, in the assay with KM12 colon, in the assay on NCI-H522 lung and in the assay with SF-295 CNS was greater than 100 µM throughout.

For `Cc1ccccc1C(C#N)/C(=N/NC(N)=S)C(=O)Nc1c(C)cccc1C` (configuration not stated), the TGI in the assay on A549 NSCLC, in the assay on ACHN renal, with HL-60(TB) leukemia, in the assay on KM12 colon, in the assay on RXF 393 renal and in the assay with SF-295 CNS was greater than 100 µM each time.

With `O=C1C2=C(c3ccccc31)C(c1ccccc1Cl)NC(=S)N2` (configuration not stated), the TGI with A549 NSCLC, in the assay on ACHN renal, in the assay on HL-60(TB) leukemia, in the assay on KM12 colon, in the assay with NCI-H522 lung and in the assay with SF-295 CNS was greater than 100 µM in each case.

Turning to `CN1C(=O)CNS1(=O)=O`, the TGI in the assay with A549 NSCLC, in the assay on ACHN renal, in the assay on HL-60(TB) leukemia, in the assay with KM12 colon, in the assay on RXF 393 renal and in the assay with SF-295 CNS was greater than 100 µM each time. Further, the TGI in the assay with SR leukemia is greater than 100 µM.

Consider `Cc1ccc(NC(=O)CC2SC(=Nc3cccc(Cl)c3C)NC2=O)cc1` (configuration not stated), for which the TGI in the assay with A549 NSCLC, in the assay on ACHN renal, in the assay on KM12 colon and with SF-295 CNS was greater than 100 µM throughout.

In the case of `O=C(O)COc1ccc2c3c1C(=O)CCC3CO2` (configuration not stated), the TGI in the assay on A549 NSCLC, in the assay on ACHN renal, in the assay on HL-60(TB) leukemia, in the assay on KM12 colon, in the assay with NCI-H522 lung and in the assay on SF-295 CNS was greater than 100 µM in each case.
